Counter-ions that a name gives are not always drawn. Like-named read-outs stand apart in the source and are kept apart here.
Legend:
LOXL2 = LOXL2 (Homo sapiens (Human), UniProt Q9Y4K0); test: LOXL2 enzyme activity assay (ROS-Glo; pre-incubation 20 min Method (a), 60 min Method (b), 20 h Method (c)); format: biochemical
[1] = system: MATN2 in MDA-MB-231 cells; test: MATN2 level in treated cells; format: cell-based, human
Method: All samples were fixed in 4% paraformaldehyde (EMS). Fixed cells were then subjected to incubation with primary antibodies followed by fluorescence secondary antibodies (Life Technologies) to visualise extracellular proteins. Anti-human MATN2 (R&D) antibody was used at 1:100 dilutions. DAPI (Sigma) was used to stain DNA.
Proteins were extracted from cultured cells using cell lysis buffer (Cell Signalling Technology) with the addition of protease and phosphatase inhibitor cocktails (Pierce). Protein concentrations were measured using Pierce 660 nm protein assay reagent and SpectaMax M5 plate reader. […] Separated proteins were transferred to nitrocellulose membranes using a Trans-Blot turbo transfer system (Bio-Rad). Following blocking with Odyssey blocking buffer (Li-COR), membranes were incubated with two primary antibodies of different species at 4° C. over night. Corresponding fluorescence secondary antibodies (Li-COR) of different excitation and emission wavelengths were used to visualize the protein of interest on an Odyssey CLx infrared imaging system (Li-COR). Quantification of band fluorescent intensity was achieved using Li-COR ImageStudio. The following primary antibodies were used, anti-LOX (Sigma), anti-human MATN2 (R&D), anti-EGFR and anti-pY1068EGFR (Cell Signalling Technology), and anti-GAPDH (Millipore).

MAO-A = MAO-A (Homo sapiens (Human), UniProt P21397); test: Monoamine oxidase A (MAO-A) selectivity assay; format: biochemical
MAO-B = MAO-B (Homo sapiens (Human), UniProt P27338); test: Monoamine oxidase B (MAO-B) selectivity assay; format: biochemical
in vivo [2] = conditions: female, mouse, po, 50 mg/kg
in vivo [3] = conditions: rat, po, 20 mg/kg
[4] = system: TGF beta signalling (pSMAD2); test: TGF beta signalling (pSMAD2); format: cell-based; conditions: FIG. 15b
[5] = system: diet-induced obesity in rats; conditions: diet-induced obesity in rats (Miana, Galan et al. 2015); cited from earlier work
adipose tissue = conditions: Heiberg, Khan et al. 2009; cited from earlier work
[6] = system: human breast cancer cells; conditions: cited from earlier work
human cancer cell lines = conditions: several human cancer cell lines; cited from earlier work
cervical cancer cells = cervical cancer cells (Yang et al. 2013); cited from earlier work
[7] = system: human breast cancer cells; conditions: mice treated with conditioned medium in the presence of BAPN; cited from earlier work
myocardial fibrosis = conditions: mouse model (Rosin, Sopel et al. 2015); cited from earlier work
[8] = system: experimental pulmonary hypertension; conditions: Nave, Mizikova et al. 2014; cited from earlier work
[9] = system: angiotensin II-induced cardiac hypertrophy; conditions: in vivo (Ohmura, Yasukawa et al. 2012); cited from earlier work
Staphylococcus Aureus = conditions: Beerlage, Greb et al. 2013; cited from earlier work
schistosomiasis = conditions: cited from earlier work
3D cell culture = 3D cell culture (not in 2D) (Schuetze, Roehrig et al. 2015); cited from earlier work
[10] = read-out: LOXL2 IC50 b) 1 hr, pre-incubation 1 hr, Method (b)

Chain of LOXL2 (Q9Y4K0 26-774, species assumed): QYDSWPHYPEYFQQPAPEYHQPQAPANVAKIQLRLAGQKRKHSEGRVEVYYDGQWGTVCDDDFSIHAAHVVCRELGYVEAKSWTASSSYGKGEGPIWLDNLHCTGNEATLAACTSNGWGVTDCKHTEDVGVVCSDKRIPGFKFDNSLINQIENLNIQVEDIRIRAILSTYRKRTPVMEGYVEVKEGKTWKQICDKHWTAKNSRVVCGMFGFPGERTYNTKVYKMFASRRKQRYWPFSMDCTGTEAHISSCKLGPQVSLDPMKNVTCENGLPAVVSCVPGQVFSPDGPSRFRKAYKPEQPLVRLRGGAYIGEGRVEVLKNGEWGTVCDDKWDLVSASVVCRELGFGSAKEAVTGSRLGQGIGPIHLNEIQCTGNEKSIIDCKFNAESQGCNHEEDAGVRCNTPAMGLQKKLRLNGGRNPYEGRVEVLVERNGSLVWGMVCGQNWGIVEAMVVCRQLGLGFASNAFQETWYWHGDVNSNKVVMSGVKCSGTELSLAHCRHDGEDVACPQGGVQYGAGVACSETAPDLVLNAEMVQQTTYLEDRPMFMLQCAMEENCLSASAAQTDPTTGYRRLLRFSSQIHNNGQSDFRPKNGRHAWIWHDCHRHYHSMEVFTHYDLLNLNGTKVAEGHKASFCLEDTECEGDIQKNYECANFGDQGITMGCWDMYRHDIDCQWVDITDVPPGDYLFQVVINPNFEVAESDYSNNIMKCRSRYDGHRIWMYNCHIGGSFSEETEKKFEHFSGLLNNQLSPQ
Chain of MAO-B (P27338 whole entry): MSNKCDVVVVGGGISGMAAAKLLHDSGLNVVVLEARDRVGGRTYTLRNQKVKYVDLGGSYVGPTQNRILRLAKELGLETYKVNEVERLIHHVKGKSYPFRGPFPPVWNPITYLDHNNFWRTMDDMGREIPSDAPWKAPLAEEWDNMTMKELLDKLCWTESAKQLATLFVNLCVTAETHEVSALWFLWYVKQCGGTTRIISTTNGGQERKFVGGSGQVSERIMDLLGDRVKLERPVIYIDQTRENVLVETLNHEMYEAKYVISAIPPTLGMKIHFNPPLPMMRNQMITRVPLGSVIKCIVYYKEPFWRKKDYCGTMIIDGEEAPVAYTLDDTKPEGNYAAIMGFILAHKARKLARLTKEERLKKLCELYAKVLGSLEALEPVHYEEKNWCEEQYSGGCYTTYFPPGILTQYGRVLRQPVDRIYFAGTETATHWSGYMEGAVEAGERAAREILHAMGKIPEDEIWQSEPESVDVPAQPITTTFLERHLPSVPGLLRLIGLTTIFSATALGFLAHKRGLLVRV
Chain of MAO-A (P21397 whole entry): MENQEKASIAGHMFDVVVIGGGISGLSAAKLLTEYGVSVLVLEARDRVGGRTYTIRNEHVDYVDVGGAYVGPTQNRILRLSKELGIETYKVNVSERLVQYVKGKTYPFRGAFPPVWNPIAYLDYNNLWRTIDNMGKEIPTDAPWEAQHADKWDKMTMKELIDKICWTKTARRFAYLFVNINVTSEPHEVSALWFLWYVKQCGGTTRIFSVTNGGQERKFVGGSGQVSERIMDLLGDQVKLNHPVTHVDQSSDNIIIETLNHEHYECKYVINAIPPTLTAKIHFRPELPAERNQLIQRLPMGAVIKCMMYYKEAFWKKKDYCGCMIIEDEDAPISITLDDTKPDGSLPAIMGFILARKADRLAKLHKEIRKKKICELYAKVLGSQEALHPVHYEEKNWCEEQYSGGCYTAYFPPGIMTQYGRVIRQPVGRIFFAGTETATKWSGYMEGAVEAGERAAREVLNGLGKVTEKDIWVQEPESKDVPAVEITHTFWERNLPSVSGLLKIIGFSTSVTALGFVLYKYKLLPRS

`CCNC(=O)c1cc(-c2ccccc2)cc(S(=O)(=O)c2cnc(CN)s2)c1` [Example 151, 5-((2-(Aminomethyl)thiazol-5-yl)sulfonyl)-N-ethyl-[1,1′-biphenyl]-3-carboxamide Dihydrochloride] showed an IC50 (LOXL2; [10]) of 77 nM.

In the case of `CS(=O)(=O)c1cc(-c2ccccc2)cc(S(=O)(=O)c2ccc(CN)s2)c1` [Example 68, (5-((5-(Methylsulfonyl)-[1,1′-biphenyl]-3-yl)sulfonyl)thiophen-2-yl)methanamine], the MATN2 level ([1]; FIG. 15b) is reported as “MATN2 reduction”.

With `NCc1ncc(S(=O)(=O)c2cc(C(=O)NCCO)cc(-c3ccccc3)c2)s1` [Example 152, 5-((2-(Aminomethyl)thiazol-5-yl)sulfonyl)-N-(2-hydroxyethyl)-[1,1′-biphenyl]-3-carboxamide Dihydrochloride] the IC50 (LOXL2; [10]) was 560 nM.

With `Cn1c(S(=O)(=O)c2ccc3ccccc3c2)cnc1CN` [Example 123, (1-Methyl-5-(naphthalen-2-ylsulfonyl)-1H-imidazol-2-yl)methanamine Dihydrochloride] the IC50 (LOXL2; [10]) was 19000 nM.

For `COc1cc(-c2cn[nH]c2)cc(S(=O)(=O)c2cnc(CN)s2)c1` [Example 142, (5-((3-methoxy-5-(1H-pyrazol-4-yl)phenyl)sulfonyl)thiazol-2-yl)methanamine tri-trifluoroacetate], the IC50 (LOXL2; [10]) was 410 nM.

With `Cn1cc(-c2cc(C(=O)O)cc(S(=O)(=O)c3cnc(CN)s3)c2)cn1` [Example 150, 3-(2-(Aminomethyl)thiazol-5-yl)sulfonyl)-5-(1-methyl-1H-pyrazol-4-yl)benzoic Acid Trihydrochloride] the IC50 (MAO-A) was greater than 100000 nM, the IC50 (MAO-B) was greater than 100000 nM and the AUC (in vivo [2]) was 38 µM·h. It also gave a Cmax (in vivo [2]) of 10 µM.

For `Cn1cc(-c2cc(C(=O)N3CC[C@@H](O)C3)cc(S(=O)(=O)c3cnc(CN)s3)c2)cn1` [Example 156, (R)-(3-(2-(Aminomethyl)thiazol-5-yl)sulfonyl)-5-(1-methyl-1H-pyrazol-4-yl)phenyl)(3-hydroxypyrrolidin-1-yl)methanone tri hydrochloride], the IC50 (LOXL2; [10]) was 200 nM.

`NCc1ncc(S(=O)(=O)c2cc(C(=O)N3CCC(O)C3)cc(-c3ccccc3)c2)s1` (stereo not shown) [Example 149, (5-((2-(Aminomethyl)thiazol-5-yl)sulfonyl)-[1,1′-biphenyl]-3-yl)(3-hydroxypyrrolidin-1-yl)methanone Dihydrochloride] gave an IC50 (LOXL2; pre-incubation 1 hr, Method (b)) of 260 nM.

In the case of `NCc1ncc([S+]([O-])c2ccccc2)s1` (stereo not shown) [Example 95, (5-(Phenylsulfinyl)thiazol-2-yl)methanamine Hydrochloride], the IC50 (LOXL2; read-out: LOXL2 IC50 c) 20 hr, pre-incubation 20 hr, Method (c)) is reported as 1000 nM.

Molecule `NCc1ncc(S(=O)(=O)c2cc(C(=O)O)cc(-c3ccccc3)c2)s1` [Example 126, 5-((2-(Aminomethyl)thiazol-5-yl)sulfonyl)-[1,1′-biphenyl]-3-carboxylic Acid Ditrifluoroacetate] has an IC50 (MAO-A) greater than 100000 nM, an IC50 (MAO-B) greater than 100000 nM and an AUC (in vivo [2]) of 413 µM·h. For the same molecule, the Cmax (in vivo [2]) was 100 µM, the AUC (in vivo [3]) was 106 µM·h and the Cmax (in vivo [3]) was 35 µM.

With `Cc1ccc(-c2cc(S(=O)(=O)c3ccc(CN)s3)ccc2S(C)(=O)=O)cc1` [Example 82, (5-((4′-Methyl-6-(methylsulfonyl)-[1,1′-biphenyl]-3-yl)sulfonyl)thiophen-2-yl)methanamine Hydrochloride] the IC50 (MAO-B) was greater than 100000 nM, the AUC (in vivo [2]) was 12 µM·h and the Cmax (in vivo [2]) was 9.4 µM.

In the case of `CN(C)C(=O)c1cc(-c2ccccc2)cc(S(=O)(=O)c2cnc(CN)s2)c1` [Example 125, 5-((2-(Aminomethyl)thiazol-5-yl)sulfonyl)-N,N-dimethyl-[1,1′-biphenyl]-3-carboxamide Dihydrochloride], the IC50 (MAO-A) is reported as greater than 100000 nM and the IC50 (MAO-B) is reported as greater than 100000 nM.

Work on `CS(=O)(=O)c1cc(S(=O)(=O)c2ccc(CN)s2)ccc1-c1ccccc1` [Example 129, (5-((2-(Methylsulfonyl)-[1,1′-biphenyl]-4-yl)sulfonyl)thiophen-2-yl)methanamine Hydrochloride] yielded an IC50 (LOXL2; [10]) of 480 nM.

Work on `NCc1ncc(S(=O)(=O)c2cc3ccccc3c3ccccc23)s1` [Example 97, (5-(Phenanthren-9-ylsulfonyl)thiazol-2-yl)methanamine Hydrochloride] yielded an IC50 (MAO-B) greater than 100000 nM.

Molecule `CN(C)C(=O)c1cc(-c2ccccc2)cc(S(=O)(=O)c2csc(CN)n2)c1` [Example 162, 5-((2-(Aminomethyl)thiazol-4-yl)sulfonyl)-N,N-dimethyl-[1,1′-biphenyl]-3-carboxamide Hydrochloride] has an IC50 (LOXL2; [10]) of 310 nM.

For `N#CCCN` [BAPN, beta-aminopropionitrile], the “inhibition of MAO-A” value (MAO-A) was “neither inhibits”, the “inhibition of MAO-B” value (MAO-B) was “neither inhibits” and the MATN2 level ([1]; FIG. 15b) was “MATN2 reduction”. The MATN2 level ([1]; MDA-MB-231 cells, at a much higher concentration, FIG. 13) was “same effect”, the “TGF beta signalling as indicated by pSMAD2” value [4] was “increased TGF beta signalling” and the body weight gain [5] was “reduces body weight gain”. For the same molecule, the metabolic profile [5] was “improves the metabolic profile”, the “local adipose tissue inflammation” value (adipose tissue) was “reduces local adipose tissue inflammation” and the metastatic tumour growth ([6]; breast cancer cells in mice (Erler et al, 2006)) was “can block metastatic tumour growth”. The invasion and metastasis ([6]; orthotopic human breast tumours or circulating human breast cancer cells, CRC, HCC, LKB1-mutant lung adenocarcinoma, anaplastic thyroid cancer, PDAC in mice) was “significantly reduced invasion and metastasis”, the “in vitro invasion activity” value (human cancer cell lines) was “blocks the in vitro invasion activity” and the “hypoxia-induced invasion and migration mediated by the EMT” value (cervical cancer cells) was “can be inhibited”. For the same molecule, the “enhanced colonisation of the lung” value [7] was “blocked”, the myocardial fibrosis (myocardial fibrosis) was “reduces myocardial fibrosis” and the “symptoms of experimental pulmonary hypertension” value [8] was “reduces the symptoms”. The cardiac hypertrophy [9] was “inhibits angiotensin II-induced cardiac hypertrophy”, the “abscesses morphology and collagenisation” value (Staphylococcus Aureus) was “influences resulting abscesses morphology and collagenisation” and the “size of the granulomas” value (schistosomiasis; Giboda, Zenka et al. 1992) was “reduces the size of the granulomas”. The egg load (schistosomiasis; in combination with antiparasitic drug PZQ compared to PZQ alone) was “reduces the egg load” and the “sensitivity to doxorubicin and paclitaxel” value (3D cell culture) was “can be restored”.

Molecule `Cn1cc(-c2cc(F)cc(S(=O)(=O)c3cnc(CN)s3)c2)cn1` [Example 131, (5-(3-Fluoro-5-(1-methyl-1H-pyrazol-4-yl)phenyl)sulfonyl)thiazol-2-yl)methanamine Trihydrochloride] has an IC50 (MAO-A) greater than 100000 nM and an IC50 (MAO-B) greater than 100000 nM.

`CN(C)C(=O)c1cc(-c2cnn(C)c2)cc(S(=O)(=O)c2csc(CN)n2)c1` [Example 164, 3-(2-(Aminomethyl)thiazol-4-yl)sulfonyl)-N,N-dimethyl-5-(1-methyl-1H-pyrazol-4-yl)benzamide Hydrochloride] showed an IC50 (LOXL2; [10]) of 1200 nM.

`CCNC(=O)c1cc(-c2cnn(C)c2)cc(S(=O)(=O)c2cnc(CN)s2)c1` [Example 154] gave an IC50 (LOXL2; [10]) of 150 nM.

Work on `NCc1ccc(S(=O)(=O)c2cccc(S(=O)(=O)N3CCCC3c3ccccc3)c2)s1` (stereo not shown) [Example 124, (5-((3-((2-Phenylpyrrolidin-1-yl)sulfonyl)phenyl)sulfonyl)thiophen-2-yl)methanamine Hydrochloride] yielded an IC50 (LOXL2; [10]) of 120 nM.

`COCn1cc(-c2cc(OC)cc(S(=O)(=O)c3cnc(CN)s3)c2)cn1` [Example 141, (5-((3-Methoxy-5-(1-(methoxymethyl)-1H-pyrazol-4-yl)phenyl)sulfonyl)thiazol-2-yl)methanamine tri-trifluoroacetate] gave an IC50 (LOXL2; [10]) of 72 nM.

Source: patent US10807974B2, “Methylamine derivatives as lysysl oxidase inhibitors for the treatment of cancer” (The Institute of Cancer Research: Royal Cancer Hospital, priority 2016, dated 2020)
